Activity calls are given as the source filed them. No cut-off for these calls is given here.
Legend:
[1] = biological target: T1, Prophenoloxidase (Manduca sexta) (UniProt Q0VJU6); experiment: Inhibition of Manduca sexta phenoloxidase at 60 uM
T1 sequence (whole entry): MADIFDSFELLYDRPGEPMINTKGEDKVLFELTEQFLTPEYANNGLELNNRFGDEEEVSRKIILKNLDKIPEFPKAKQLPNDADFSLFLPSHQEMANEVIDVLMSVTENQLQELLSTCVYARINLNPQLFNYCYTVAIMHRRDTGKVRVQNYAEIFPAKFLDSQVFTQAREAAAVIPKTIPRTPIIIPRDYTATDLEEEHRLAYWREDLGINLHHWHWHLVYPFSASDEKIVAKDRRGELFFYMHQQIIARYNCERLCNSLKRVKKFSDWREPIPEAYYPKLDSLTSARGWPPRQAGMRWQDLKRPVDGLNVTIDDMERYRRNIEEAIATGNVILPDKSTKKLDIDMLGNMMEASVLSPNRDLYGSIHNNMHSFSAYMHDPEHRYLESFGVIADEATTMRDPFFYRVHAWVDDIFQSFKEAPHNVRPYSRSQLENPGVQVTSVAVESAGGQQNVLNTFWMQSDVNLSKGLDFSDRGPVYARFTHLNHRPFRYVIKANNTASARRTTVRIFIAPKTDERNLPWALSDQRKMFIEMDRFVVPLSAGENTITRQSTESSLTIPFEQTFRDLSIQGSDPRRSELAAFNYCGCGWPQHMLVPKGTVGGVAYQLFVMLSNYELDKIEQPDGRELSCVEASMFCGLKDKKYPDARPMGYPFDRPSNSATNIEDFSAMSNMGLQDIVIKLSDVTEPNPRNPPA

Manduca sexta = experiment: Inhibition of immune system assessed as suppression of melanotic nodule formation in Photorhabdus luminescens TT01 infected Manduca sexta; assay type: functional, organism-based
Photorhabdus luminescens [2] = experiment: Induction of virulence of Photorhabdus luminescens TT01 assessed as decrease in survival of Photorhabdus luminescens TT01 infected Manduca sexta; assay type: functional
Photorhabdus luminescens [3] = experiment: Induction of virulence of Photorhabdus luminescens TT01 assessed as decrease in survival of Photorhabdus luminescens TT01 infected Manduca sexta in presence of cinnamic acid; assay type: functional
Photorhabdus luminescens [4] = experiment: Induction of virulence of Photorhabdus luminescens TT01 assessed as increase in proliferation of Photorhabdus luminescens TT01 in Manduca sexta; assay type: functional
[5] = Drug level in Photorhabdus luminescens TT01 infected Manduca sexta hemolymph after 24 hrs by TLC plate method; assay type: ADME, tissue-based; conditions: read-out: Drug uptake
Photorhabdus luminescens [6] = experiment: Induction of virulence of Photorhabdus luminescens TT01 assessed as increase in proliferation of Photorhabdus luminescens TT01 in Manduca sexta in presence of cinnamic acid; assay type: functional
Photorhabdus luminescens [7] = experiment: Induction of virulence of stlA deficient Photorhabdus luminescens BMM901 assessed as decrease in survival of Photorhabdus luminescens BMM901 infected Manduca sexta in presence of cinnamic acid; assay type: functional
Photorhabdus luminescens [8] = experiment: Induction of virulence of stlA deficient Photorhabdus luminescens BMM901 assessed as increase in proliferation of Photorhabdus luminescens BMM901 in Manduca sexta in presence of cinnamic acid; assay type: functional

CC(C)c1c(O)cc(/C=C/c2ccccc2)cc1O [TAPINAROF]
Activity [1]: Dose-dependent effect | Activity (Manduca sexta): Active | Activity (Photorhabdus luminescens [2]): Active | Activity (Photorhabdus luminescens [3]): Active | Activity (Photorhabdus luminescens [4]): Active | concentration at 24 h [5]: 275 µg/mL | Activity (Photorhabdus luminescens [6]): Active | Activity (Photorhabdus luminescens [7]): Active | Activity (Photorhabdus luminescens [8]): Active

From ChEMBL document CHEMBL1147058, “An antibiotic produced by an insect-pathogenic bacterium suppresses host defenses through phenoloxidase inhibition” (Proc Natl Acad Sci U S A, 2007)
